# Test results published in patent US11325892B2, “Compounds and methods for treating cancer” (Mayo Foundation for Medical Education and Research, priority 2014, dated 2022).
# How the values were obtained:
# [1] = test system: NT or FA cells; experiment: Proliferative dose response of thyroid cells; assay type: cell-based; conditions: 72H treatment
# Description: (§1) Cells were seeded at 5,000 cells/well in clear-bottom 96-well plates in triplicate in Maintenance Media. Drug treatment was applied at a concentration of 1:1000 in reduced serum (3%) Maintenance Media. After 72 hours, cells were washed with PBS, and stored at −80° C. prior to analysis using CyQuant® Proliferation Analysis Kit (Invitrogen) as per manufacturers' protocol for relative fluorescence units. Alternatively, cells were plated 2×10^5/well in 12-well plates (Midwest Scientific) in triplicate prior to drug treatment. After 120 hour treatment, cell number was established using a Coulter Particle Counter (Beckman). Or, cells were plated (0.5 or 1×10^5/well) in 24-well plates (Midwest Scientific), 3×. After 72 hour treatment, cell number established using Coulter Particle Counter (Beckman). Oleic acid-albumin (Sigma Aldrich) was added to media at 5 μM, and was applied adjuvant to drug treatment. Drug stocks were prepared in DMSO (Sigma) at 1000×. EC50 dosing per cell line was calculated using CalcuSyn® analytical software.
# (§2) The efficacy of pharmacologic inhibition of this enzyme on tumor cell proliferation after a 72H treatment was determined, using A939572-a commercially available small molecule SCD1 inhibitor (Xin Z, Zhao H, Serby M D, Liu B, Liu M, Szczepankiewicz B G, Nelson L T, Smith H T, Suhar T S, Janis R S, Cao N, Camp H S, Collins C A, Sham H L, Surowy T K, Liu G. Discovery of piperidine-aryl urea-based stearoyl-CoA desaturase 1 inhibitors. Bioorg Med Chem Lett. 2008; 18(15):4298-302). […] Despite conspicuous SCD1 expression in 4 of the 5 FTC cells tested, no response to A939572 was observed (FIG. 10D).
# [2] = test system: PTC cells; experiment: Proliferative dose response of thyroid cells; assay type: cell-based; conditions: 72H treatment; 2/5 PTC cells at high doses
# Description: as §1, §2
# [3] = test system: FTC cells; experiment: Proliferative dose response of thyroid cells; assay type: cell-based; conditions: 72H treatment
# Description: as §1, §2
# [4] = test system: THJ16T ATC cell xenograft; experiment: THJ16T xenograft model; assay type: in vivo, female athymic nu/nu mice
# Description: Formalin-fixed, paraffin-embedded subject tissues were mounted on slides, blocked with Diluent (DakoCytomation) for 30 min, and then probed for SCD (Sigma-Aldrich, #HPA012107). IHC scoring was performed as previously described (von Roemeling C A, Marlow L A, Wei J J, et al. Stearoyl-CoA desaturase 1 is a novel molecular therapeutic target for clear cell renal cell carcinoma. Clin Cancer Res. May 1 2013; 19(9):2368-2380). Cases where insufficient tumor tissue presented were excluded. 20× images were obtained using Scanscope XT and Imagescope software.
# 1×10^6 THJ16T ATC cells were subcutaneously injected in female athymic nu/nu mice (Harlan Laboratories). Treatment was initiated once tumor volumes reached 50-100 mm^3. MF-438 was suspended in 0.5% carboxymethyl-cellulose containing strawberry drink flavoring(0.1 g/mL) in sterilized H2O at 25 mg/kg in a 100 μl dose, and administered via oral gavage once daily. Carfilzomib was solubilized in DMSO (4% of FC), suspended in 100% corn oil at 4 mg/kg per 50 uL dose and administered via intraperitoneal injection twice weekly on consecutive days. Tumor volume(0.5236[L*W*H]) and body weight were measured 2×/week. N=10 mice/group.
# MF-438 was tested in combination with carfilzomib in vivo in a THJ16T xenograft model. […] J Clin Endocrinol Metab. 2010; 95(12):5338-47). […] Saline was administered as necessary. These adverse events resolved 24-48 hours after the second administration of carfilzomib. […] However, no other significant adverse events were observed. […] IHC analysis of tumors resected from each treatment group was performed.
Compound,proliferative response [1],proliferative response [2],proliferative response [3],tumor response / mean tumor volume course ([4]; THJ16T xenograft),adverse events ([4]; mice bearing THJ16T xenograft),"survivin expression (IHC) ([4]; mouse, in vivo)","CD31 (IHC), tumor vascularization ([4]; versus placebo control)","cleaved caspase-3 (IHC) ([4]; versus placebo control, only the combination group achieved statistical significance)","HERPUD1 (IHC), marker for ER stress ([4]; versus placebo control, statistically significant combinatorial values)"
CNC(=O)c1cccc(NC(=O)N2CCC(Oc3ccccc3Cl)CC2)c1 [A939572],No response,minimal response,no response,–,–,–,–,–,–
"Cc1nnc(-c2ccc(N3CCC(Oc4ccccc4C(F)(F)F)CC3)nn2)s1 [MF-438, 2-methyl-5-(6-(4-(2-(trifluoromethyl)phenoxy)piperidin-1-yl)pyridazin-3-yl)-1,3,4-thiadiazole]",–,–,–,no tumor response,Discharge from the eye and squinting,induced survivin expression,trend toward decreased CD31,increased cleaved caspase-3,Increased HERPUD1
